The test system of experiment [1] is tonic seizure produced by 50 milliamps current through corneal electrodes (hind limb tonic extension). The experiment can be described thus: Maximum Electroshock Test (MES). It is filed as in vivo, female C57Bl/6 mice. The settings on record: Mus musculus, ip, 0.5 h; mice, i.p. 30 min before MES; abolition of hind limb tonic extension; read-out: MES Results: median effective dose (ED50). The protocol:
(§1) The anticonvulsive properties of the compounds of the invention were evaluated using two standard animal models of epilepsy: the maximal electroshock test (MES) and the pentylenetetrazol (PTZ)-induced seizure procedure. Melatonergic action is indicated by binding studies done in hamster hypothalamus tissue.
2. Maximum Electroshock Test
The MES procedure used is based upon the tests disclosed by Swinyard and et al in J. Pharmacol, Expt. Ther., (1952) 106, 319 and L. A. Woodbury et al in Arch. Int. Pharmocodyn, (1952), 92-97. These tests are also described in U.S. Pat. Nos. 5,242,942 and 5,240,937, respectively.
In the MES procedure, a tonic seizure was produced in female C57Bl/6 mice (17-26 g) by the delivery of a 50 milliamps current through corneal electrodes for 0.2 sec. Before testing, the animals were allowed food and water ad libitum. Compounds were injected i.p. 30 min before the MES. Reference compounds (phenytoin, carbamazepine, phenobarbital, and valproic acid) were tested at the peak of activity and at the dose range reported in the literature. Seven mice were used per group. In this test anticonvulsive activity was indicated by the abolition of the hind limb tonic extension. The median effective dose (ED50) was obtained for each compound and compared to ED50 's of reference compound(s).

In experiment [2] the test system is pentylenetetrazol (PTZ)-induced seizures. The experiment can be described thus: Pentylenetetrazole (PTZ)-Induced Seizure Test. It is filed as in vivo, female C57BI/6 mice. The note with it: 50 mg/kg i.p., mice, 30 min before 75 mg/kg PTZ i.p. How it is done:
as §1
1. Pentylenetetrazole--Induced Seizure Test
The PTZ technique employed was similar to that disclosed in P.C.T. publication WO 93/0572 (PCT/US92/07675), published on Apr. 1, 1993.
In the PTZ procedure, female C57BI/6 mice (17-26 g) were injected j.p. (vol=0.1 ml/20 g) with test compound or vehicle 30 min before i.p. administration of 75 mg/kg pentylenetetrazol. Multiple doses of reference compounds (ethosuximide, trimethadione, and pentobarbital) were tested at the peak of activity and at the dose range reported in the literature. Ten mice were used per group. After injection, mice were placed in individual observation cages and monitored for one hour. During the first thirty minutes following PTZ injection, seizure activity was recorded by measure: the latency to the onset of pre-convulsive activity (Pre) the latency to the onset of the first clonic seizure longer than five seconds (First) the latency to the onset of the first intense-generalized clonic/tonic seizure (IGS) and the length of survival (Surv Time). During the second thirty-minute period, only time of death was recorded.
Those compounds that produced a significant delay in the onset of seizure activity or delayed (or abolished) mortality when compared to that produced by vehicle (reference) were classified as anticonvulsants. Significant differences between animals treated with reference or test compounds were determined using the Student's t-test.

Structures are written as SMILES.

In the case of `CCC(=O)Nc1ccccc1-c1nc2ccccc2[nH]1` [Example 1, N-[2-(1H-benzimidazol-2-yl)phenyl] propanamide], the ED50 in experiment [1] was below 25 mg/kg.
Still for that read-out and setting: under `COCC(=O)Nc1ccccc1-c1nc2ccccc2[nH]1` [Example 2, N-[2-(benzimidazol-2-yl)phenyl] methoxyacetamide] stands below 75 mg/kg.
For `CNC(=O)Nc1ccccc1-c1nc2ccccc2[nH]1` [Example 10, N-[2-(benzimidazol-2-yl)phenyl]-N'-methyl urea], the ED50 in experiment [1] is below 75 mg/kg. Further, in experiment [2], the “First: latency to first seizure” value is listed as “++ (>200% controls)”, the “Pre: latency to first twitch” value was “+ (>100% controls)”, the “Surv Time: duration of survival” value was “++ (>200% controls)” and the “Surv: survival at one hour postPTZ” value is reported as “++++ (>400% controls)”.
As for `CC(=O)Nc1ccccc1-c1nc2ccccc2o1` [Example 11, N-[2-(benzoxazol-2-yl)phenyl] acetamide], the ED50 in experiment [1] is below 75 mg/kg.
Consider `CNC(=O)Nc1ccccc1-c1nc2ccccc2o1` [Example 12, N-[2-(benzoxazol-2-yl)phenyl]-N'-methyl urea], for which the ED50 in experiment [1] was below 100 mg/kg. In addition, in experiment [2], the “First: latency to first seizure” value is given as “+++ (>300% controls)”; the “IGS: onset of intense, generalized seizures” value is given as “+ (>100% controls)”; the “Pre: latency to first twitch” value was “+ (>100% controls)”; the “Surv Time: duration of survival” value is listed as “++ (>200% controls)”. Also, in experiment [2], the “Surv: survival at one hour postPTZ” value is reported as “++ (>200% controls)”.
Regarding `CC(=O)Nc1ccccc1-c1nc2ccccc2s1` [Example 13, N-[2-(benzthiazol-2-yl)phenyl] acetamide], the ED50 in experiment [1] is below 25 mg/kg.
Take `COc1ccc2[nH]c(-c3ccccc3NC(C)=O)nc2c1` [Example 15, N-[2-(5-methoxy-1H-benzimidazol-2-yl)phenyl] acetamide]: in experiment [2], the “First: latency to first seizure” value was “+ (>100% controls)”, the “Pre: latency to first twitch” value was “+ (>100% controls)” and the “Surv Time: duration of survival” value was “++ (>200% controls)”.

Source of the values: patent US5496826A, “Pharmaceutical methods of using heterocyclic derivatives of N-phenylamides” (Bristol-Myers Squibb Company, priority 1994, dated 1996).
